Here are results for 3 compounds from ChEMBL document CHEMBL1148818, “1,2,4-triazol-3-yl-thiopropyl-tetrahydrobenzazepines: a series of potent and selective dopamine D(3) receptor antagonists” (J Med Chem, 2007).

The nature of data set [1]: in vivo. To be noted: Sprague-Dawley, rat.
A short description of data set [2]: in vivo. To be noted: Sprague-Dawley, rat, whole blood.
The nature of data set [3]: in vivo. The note with it: Sprague-Dawley, rat. The source holds these as a separate data set.
The nature of the next data set: in vitro. To be noted: human, liver microsomes.

Compound `Cc1ccc2c(-c3nnc(SCCCN4CCc5ccc(-c6cc(C)on6)cc5CC4)n3C)cccc2n1` yielded a Vd in the data set “in vivo [1]” of 3.4 L/kg. The compound further displayed a clearance in “in vivo [2]” of 38 mL/min/kg. The bioavailability in “in vivo [3]” was found to be 24%.

On to `Cc1ccc2c(-c3nnc(SCCCN4CCc5ccc(-c6ncc(C)o6)cc5CC4)n3C)cccc2n1`, for which the CLint scaled in the data set “in vitro” was determined as 4.7 mL/min/g. Also, the Vd in “in vivo [1]” came to 7.9 L/kg. In the data set “in vivo [2]”, this compound gave a clearance of 59 mL/min/kg. The compound further showed a bioavailability in the data set “in vivo [3]” of 27%.

Consider `Cc1cnc(-c2ccc3c(c2)CCN(CCCSc2nnc(-c4cccn4C)n2C)CC3)o1`, for which the CLint scaled in the data set “in vitro” worked out at 6.4 mL/min/g.
